Reference: patent publication US4468511A, “C-20- And C-23-Modified macrolide derivatives” (Eli Lilly and Company, priority 1983, dated 1984)
In brackets after ≈: the same amount, converted by molar mass. Read-outs that look alike come from different tables or passages of the source.

Assays:
Type in all cases: cell-based
[1] = test system: Streptococcus pyogenes 9960; test: MIC, standard agar-dilution assay
Description: (§1) Certain of the derivatives are active against some gram-negative bacteria, such as Pasteurella species. The MIC's in Table II were determined by standard agar-dilution assays. The MIC's in Table III were obtained using a conventional broth-dilution microtiter test.

[2] = test system: Streptococcus Group D X66; test: MIC, standard agar-dilution assay
Description: as §1

[3] = test system: Escherichia coli TEM; test: MIC, standard agar-dilution assay
Description: as §1

[4] = test system: Klebsiella pneumoniae KAE; test: MIC, standard agar-dilution assay; settings: agar-dilution; Klebsiella pneumoniae KAE; read-out: MIC
Description: as §1

[5] = test system: Klebsiella pneumoniae X26; test: MIC, standard agar-dilution assay
Description: as §1

[6] = test system: Staphylococcus aureus V41; test: MIC, standard agar-dilution assay; settings: Staphylococcus aureus, V41
Description: as §1

[7] = test system: Streptococcus pneumoniae Park I; test: MIC, standard agar-dilution assay
Description: as §1

[8] = test system: Escherichia coli EC14; test: MIC, standard agar-dilution assay; settings: agar-dilution; Escherichia coli EC14; read-out: MIC
Description: as §1

[9] = test system: Staphylococcus aureus X1.1; test: MIC, standard agar-dilution assay
Description: as §1

[10] = test system: Staphylococcus aureus; test: MIC, conventional broth-dilution microtiter test
Description: as §1

[11] = test system: Pasteurella multocida 17E; test: MIC, conventional broth-dilution microtiter test; settings: broth-dilution microtiter; Pasteurella multocida 17E, Bovine isolate; read-out: MIC
Description: as §1

[12] = test system: Pasteurella multocida 68C; test: MIC, conventional broth-dilution microtiter test; settings: broth-dilution microtiter; Pasteurella multocida 68C; read-out: MIC
Description: as §1

[13] = test system: Pasteurella hemolytica 41D; test: MIC, conventional broth-dilution microtiter test; settings: broth-dilution microtiter; Pasteurella hemolytica 41D; read-out: MIC
Description: as §1

[14] = test system: Mycoplasma gallisepticum 34159; test: MIC, conventional broth-dilution microtiter test; settings: Mycoplasmoides gallisepticum; broth-dilution microtiter; Mycoplasma gallisepticum 34159, Resistant strain; read-out: MIC
Description: as §1

[15] = test system: Pasteurella hemolytica 22C; test: MIC, conventional broth-dilution microtiter test; settings: broth-dilution microtiter; Pasteurella hemolytica 22C; read-out: MIC
Description: as §1

[16] = test system: Streptococcus sp. 80; test: MIC, conventional broth-dilution microtiter test; settings: broth-dilution microtiter; Streptococcus sp. 80; read-out: MIC
Description: as §1

[17] = test system: Mycoplasma gallisepticum; test: MIC, conventional broth-dilution microtiter test; settings: Mycoplasmoides gallisepticum
Description: as §1

[18] = test system: Pasteurella multocida 60A; test: MIC, conventional broth-dilution microtiter test; settings: broth-dilution microtiter; Pasteurella multocida 60A, Avian isolate; read-out: MIC
Description: as §1

[19] = test system: Mycoplasma gallisepticum 41313; test: MIC, conventional broth-dilution microtiter test; settings: Mycoplasmoides gallisepticum; broth-dilution microtiter; Mycoplasma gallisepticum 41313, Resistant strain; read-out: MIC
Description: as §1

[20] = test system: Mycoplasma hyorhinis; test: MIC, conventional broth-dilution microtiter test
Description: as §1

[21] = test system: Pasteurella hemolytica 23C; test: MIC, conventional broth-dilution microtiter test; settings: broth-dilution microtiter; Pasteurella hemolytica 23C; read-out: MIC
Description: as §1

[22] = test system: Pasteurella multocida 22A; test: MIC, conventional broth-dilution microtiter test; settings: broth-dilution microtiter; Pasteurella multocida 22A; read-out: MIC
Description: as §1

[23] = test system: Pasteurella multocida 40G; test: MIC, conventional broth-dilution microtiter test; settings: broth-dilution microtiter; Pasteurella multocida 40G; read-out: MIC
Description: as §1

[24] = test system: Haemophilus influenzae 76; test: MIC, standard agar-dilution assay
Description: (§2) The MIC's in Table II were determined by standard agar-dilution assays. The MIC's in Table III were obtained using a conventional broth-dilution microtiter test.

[25] = test system: Haemophilus influenzae C.L.; test: MIC, standard agar-dilution assay
Description: as §2

[26] = test system: Staphylococcus aureus X400; test: MIC, standard agar-dilution assay
Description: as §2

[27] = test system: Staphylococcus epidermidis EPI2; test: MIC, standard agar-dilution assay
Description: as §2

[28] = test system: Staphylococcus epidermidis EPI1; test: microbe, parasite or virus in culture
Description: as §2

[29] = test system: Staphylococcus aureus S13E; test: microbe, parasite or virus in culture
Description: as §2

[30] = test system: Streptococcus pyogenes C203; test: MIC, standard agar-dilution assay; settings: agar-dilution; Streptococcus pyogenes C203; read-out: MIC
Description: as §1

[31] = agar-dilution, Klebsiella pneumoniae X26, read-out: MIC
[32] = agar-dilution, Streptococcus pneumoniae Park I, read-out: MIC
[33] = broth-dilution microtiter, read-out: MIC
[34] = broth-dilution microtiter, Mycoplasma hyorhinis, read-out: MIC
[35] = agar-dilution, Staphylococcus epidermidis EPI2, read-out: MIC
[36] = Staphylococcus epidermidis, EPI1
[37] = agar-dilution, Streptococcus 9960, read-out: MIC
[38] = agar-dilution, Streptococcus Group D X66, read-out: MIC
[39] = agar-dilution, Escherichia coli TEM, read-out: MIC
[40] = agar-dilution, Haemophilus influenzae 76, Ampicillin-resistant strain, read-out: MIC
[41] = agar-dilution, Haemophilus influenzae C.L., Ampicillin-sensitive strain, read-out: MIC

| SMILES | MIC [4] [µg/mL] | MIC [5, 31] [µg/mL] | MIC [6] [µg/mL] | MIC [8] [µg/mL] | MIC [10, 33] [µg/mL] | MIC [11] [µg/mL] | MIC [12] [µg/mL] | MIC [13] [µg/mL] | MIC [14] [µg/mL] | MIC [15] [µg/mL] | MIC [16] [µg/mL] | MIC [18] [µg/mL] | MIC [19] [µg/mL] | MIC [20, 34] [µg/mL] | MIC [21] [µg/mL] | MIC [22] [µg/mL] | MIC [23] [µg/mL] | MIC ([26]; Staphylococcus aureus, X400) [µg/mL] | MIC [28, 36] [µg/mL] | MIC [29] [µg/mL] | further results |
| --- | --- | --- | --- | --- | --- | --- | --- | --- | --- | --- | --- | --- | --- | --- | --- | --- | --- | --- | --- | --- | --- |
| CCC1OC(=O)CC(O)C(C)C(OC2OC(C)C(O)C(N(C)C)C2O)C(CCN2C(=O)c3ccccc3C2=O)CC(C)C(=O)C=CC(C)=CC1CO (stereo not drawn) [Compound 6, 20-N-Phthalimido-20-deoxy-20-dihydro-OMT] | > 128 | 16 (≈ 22 µM) | 8 (≈ 11 µM) | > 128 | 25 (≈ 34.3 µM) | 50 (≈ 68.6 µM) | 25 (≈ 34.3 µM) | 50 (≈ 68.6 µM) | 50 (≈ 68.6 µM) | 50 (≈ 68.6 µM) | 3.12 (≈ 4.28 µM) | 50 (≈ 68.6 µM) | 50 (≈ 68.6 µM) | 50 (≈ 68.6 µM) | 50 (≈ 68.6 µM) | 50 (≈ 68.6 µM) | 50 (≈ 68.6 µM) | 16 (≈ 22 µM) | 4 (≈ 5.49 µM) | 8 (≈ 11 µM) | MIC [1]; 9960: 16 µg/mL (≈ 22 µM); MIC [2]: 16 µg/mL (≈ 22 µM); MIC ([3]; Escherichia coli): 64 µg/mL (≈ 87.8 µM); MIC [7, 32]: 2 µg/mL (≈ 2.74 µM); MIC ([9]; agar-dilution, Staphylococcus aureus X1.1, read-out: MIC): 4 µg/mL (≈ 5.49 µM); MIC ([17]; broth-dilution microtiter, Mycoplasma gallisepticum, read-out: MIC): 3.12 µg/mL (≈ 4.28 µM); MIC ([24]; Haemophilus influenzae, 76): 64 µg/mL (≈ 87.8 µM); MIC ([25]; Haemophilus influenzae): 64 µg/mL (≈ 87.8 µM); MIC [27, 35]: 2 µg/mL (≈ 2.74 µM) |
| CCC1OC(=O)CC(O)C(C)C(OC2OC(C)C(O)C(N(C)C)C2O)C(CCN2C(=O)c3ccccc3C2=O)CC(C)C(=O)C=CC(C)=CC1C (stereo not drawn) [Compound 22, 20-N-Phthalimido-20-deoxy-20-dihydro-DOMT] | > 128 |  | 8 (≈ 11.2 µM) | > 128 | 25 (≈ 35.1 µM) | 50 (≈ 70.1 µM) | 25 (≈ 35.1 µM) | 50 (≈ 70.1 µM) | 50 (≈ 70.1 µM) | 50 (≈ 70.1 µM) | 6.25 (≈ 8.77 µM) | 50 (≈ 70.1 µM) | 50 (≈ 70.1 µM) | 25 (≈ 35.1 µM) | 50 (≈ 70.1 µM) | 50 (≈ 70.1 µM) | 50 (≈ 70.1 µM) | 32 (≈ 44.9 µM) | 8 (≈ 11.2 µM) | 8 (≈ 11.2 µM) | MIC [1, 37]: 16 µg/mL (≈ 22.4 µM); MIC [2, 38]: 16 µg/mL (≈ 22.4 µM); MIC [3, 39]: 128 µg/mL (≈ 180 µM); MIC ([5]; Klebsiella pneumoniae, X26): 32 µg/mL (≈ 44.9 µM); MIC ([7]; Streptococcus pneumoniae): 4 µg/mL (≈ 5.61 µM); MIC ([9]; Staphylococcus aureus, X1.1): 8 µg/mL (≈ 11.2 µM); MIC [17]: 0.78 µg/mL (≈ 1.09 µM); MIC ([24]; Haemophilus influenzae, 76): 128 µg/mL (≈ 180 µM); MIC ([25]; Haemophilus influenzae): 128 µg/mL (≈ 180 µM); MIC ([27]; Staphylococcus epidermidis, EPI2): 4 µg/mL (≈ 5.61 µM) |
| CCC1OC(=O)CC(O)C(C)C(OC2OC(C)C(O)C(N(C)C)C2O)C(CCN2C(=O)c3ccccc3C2=O)CC(C)C(=O)C=CC(C)=CC1CN1C(=O)c2ccccc2C1=O (stereo not drawn) [Compound 31, 20,23-Di-N-Phthalimido-20,23-dideoxy-20-dihydro-OMT] | > 128 | > 128 | 4 (≈ 4.66 µM) | > 128 |  | > 50 | > 50 | > 50 | 25 (≈ 29.1 µM) | > 50 | 12.5 (≈ 14.6 µM) | > 50 | 25 (≈ 29.1 µM) |  | > 50 | > 50 | > 50 |  | 4 (≈ 4.66 µM) | 4 (≈ 4.66 µM) | MIC [1, 37]: 16 µg/mL (≈ 18.6 µM); MIC [2, 38]: 8 µg/mL (≈ 9.32 µM); MIC [3, 39]: > 128 µg/mL; MIC [30]: 16 µg/mL (≈ 18.6 µM); MIC ([7]; Streptococcus pneumoniae): 2 µg/mL (≈ 2.33 µM); MIC ([9]; Staphylococcus aureus, X1.1): 4 µg/mL (≈ 4.66 µM); MIC [10]: 12.5 µg/mL (≈ 14.6 µM); MIC [17]: 12.5 µg/mL (≈ 14.6 µM); MIC ([20]; Mycoplasma): 50 µg/mL (≈ 58.3 µM); MIC [24, 40]: > 128 µg/mL; MIC [25, 41]: > 128 µg/mL; MIC ([26]; agar-dilution, Staphylococcus aureus X400, Methicillin-resistant strain, read-out: MIC): 16 µg/mL (≈ 18.6 µM) |
| CCC1OC(=O)CC(O)C(C)C(OC2OC(C)C(OC3CC(C)(O)C(O)C(C)O3)C(N(C)C)C2O)C(CCN2C(=O)c3ccccc3C2=O)CC(C)C(=O)C=CC(C)=CC1CO (stereo not drawn) [Compound 17, 20-N-Phthalimido-20-deoxy-20-dihydro-DMT] | > 128 | > 128 | 64 (≈ 73.3 µM) | > 128 | > 50 | > 50 | > 50 | > 50 | 50 (≈ 57.3 µM) | > 50 | 50 (≈ 57.3 µM) | > 50 | 50 (≈ 57.3 µM) | 50 (≈ 57.3 µM) | > 50 | > 50 | > 50 | 64 (≈ 73.3 µM) |  | 64 (≈ 73.3 µM) | MIC [1, 37]: > 128 µg/mL; MIC [2, 38]: > 128 µg/mL; MIC [3, 39]: > 128 µg/mL; MIC [30]: 128 µg/mL (≈ 147 µM); MIC [7, 32]: 16 µg/mL (≈ 18.3 µM); MIC ([9]; Staphylococcus aureus, X1.1): 64 µg/mL (≈ 73.3 µM); MIC [17]: 12.5 µg/mL (≈ 14.3 µM); MIC [24, 40]: > 128 µg/mL; MIC [25, 41]: > 128 µg/mL; MIC [27, 35]: 32 µg/mL (≈ 36.7 µM); MIC ([28]; agar-dilution, Staphylococcus epidermidis EPI1, read-out: MIC): 32 µg/mL (≈ 36.7 µM) |
